Each structure is given as a SMILES string.

As for `CCc1nn(-c2cc([N+](=O)[O-])ccc2Br)c(=O)n1Cc1ccc(-c2ccccc2S(=O)(=O)NC(C)(C)C)cc1F`, the melting point was in the range of 223 to 225 °C.

On to `CC(=O)OCCC1CCCN(C(=O)c2ccc(NC(=O)c3ccccc3Cl)nc2)c2ccc(Cl)cc21` (stereo unspecified), for which the melting point fell in the range of 151 to 153 °C.

`N[C@H]1Cc2ccccc2[C@@H]1O` returned a melting point of 104 to 106 °C.

`Cc1cccc(C)c1/N=C1\SCC(=O)N1N` yielded a melting point of 149 to 152 °C.

For the molecule `CNc1cc(Oc2ccc3c(C(=O)Nc4ccc(F)c(C(F)(F)F)c4)cncc3c2)ncn1`, the melting point was 255 to 257 °C.

The molecule `CNC(=O)N1CCc2cc(OC)c(OC)c(O)c2C1Cc1cccc(OC)c1` (stereo unspecified) registered a melting point of 75 to 80 °C.

Take `COc1ccc(C(=O)c2c(C)n(C(C)=O)c(=O)n2C(C)=O)cc1`: the melting point was in the range of 123 to 125 °C.

Molecule `FC(F)(F)c1cccc(Nc2ccccc2-c2n[nH]c(=S)o2)c1` yielded a melting point of 211 to 213 °C.

With `C=C(C)C(=O)NCCC#N`, the melting point fell in the range of 46 to 48 °C.

Molecule `CC(C)CCCOc1c(-c2ccc(S(C)(=O)=O)cc2)cnn(-c2cccc(Cl)c2)c1=O` displayed a melting point of 139 to 140 °C.

Take `Sc1nccn1Cc1c(Cl)cccc1Cl`: the melting point was 242 to 243 °C.

Take `CCCn1nc(C(C)C)c(C(=O)OCOC(C)=O)c1Cc1ccc(-c2ccccc2-c2nnn(C(c3ccccc3)(c3ccccc3)c3ccccc3)n2)cc1`: the melting point lay in the range of 124 to 128 °C.

As for `Fc1ccc(-c2[nH]nc(C3=CCN4CCCC4C3)c2-c2ccncc2)cc1` (stereo unspecified), the melting point is 209 to 214 °C.

Take `CCCc1nc2ccnn2c(O)c1Cc1ccc(-c2ccccc2C#N)cc1`: the melting point is 251 °C.

The molecule `CCc1nc(-c2nn(Cc3ccccc3F)c3ccccc23)oc1CO` showed a melting point of 144 °C.

Take `Clc1cccnc1-c1ccc2[nH]nc(Nc3ccccn3)c2c1`: the melting point was 164 °C.

In turn, `CN(C)Cc1cc(Nc2nncc3ccccc23)cc(CN(C)C)c1O` registered a melting point of 195 °C.

For the molecule `N#Cc1ccc(CN2C(=O)c3ccccc3C2=O)cc1`, the melting point was in the range of 189 to 191 °C.

As to `COc1ccc2cc(-c3ccnc(NCCc4ccc(OC)c(OC)c4)n3)cc(N3CCNCC3)c2c1`, the melting point lay in the range of 138 to 140 °C.

`CCOC(=O)C1=C(C(F)(F)F)Nc2n[nH]cc2C1c1ccccc1OC` (stereo unspecified): the melting point lay in the range of 144 to 146 °C.

As to `CC(=O)OC/C=C(\C)CCc1c(C)c(O)c(C)c(C)c1O`, the melting point was in the range of 94.5 to 96 °C.

Regarding `CCOC(=O)CN(Cc1ccccc1)C(=O)Cn1c2cccc(OCc3ccccc3)c2c2c(COC)c(C(=O)OC(C)C)ncc21`, the melting point is 122 °C.

Consider `OCc1cn(-c2cccc3cccnc23)cn1`, for which the melting point lay within 168 to 170 °C.

For the molecule `CCOC(=O)c1cc(-c2ccc(OC)cc2)nn(CC2CCCC2)c1=O`, the melting point lay within 63.6 to 64.4 °C.

As for `CNC(=O)c1cc(C)c(C(c2cc(F)ccc2F)S(=O)(=O)c2ccc(Cl)cc2)cn1` (stereo unspecified), the melting point is 200 to 201 °C.

`N#Cc1ccc(CCC2CCC(=O)CC2)cc1` showed a melting point of 62.5 to 64.3 °C.

`COC(=O)COc1ccc2cc(-c3cnc(-c4cn(C)c5ccccc45)o3)ccc2c1`: the melting point lay within 187 to 189 °C.

With `CCC(=O)C1(Nc2ccccc2)CCN(CCc2ccccc2)CC1`, the melting point was 106 °C.

`CCOC(=O)C(C)c1ccc(-c2cn3cccnc3n2)cc1` (stereo unspecified) gave a melting point of 171 to 173 °C.

`CCC1(N)CCN(c2c(F)c(N)c3c(=O)c(C(=O)O)cn(C4CC4)c3c2F)C1` (stereo unspecified): the melting point is 205 to 206 °C.

As for `CN1CCN(Cc2ccc(NC(=O)c3ccc(Cl)c(C#Cc4ccc(NC5CC5)nn4)c3)cc2C(F)(F)F)CC1`, the melting point was in the range of 133 to 134 °C.

As to `CCN(CC)C(=O)CCS(=O)c1cc(-c2ccccc2)nc2ccccc12` (stereo unspecified), the melting point turned out to be 130 °C.

The molecule `Cc1nnc(SCC2=C(C(=O)O)N3C(=O)C(N)C3SC2)s1` (stereo unspecified) displayed a melting point of 206 °C.

With `COc1ccc([C@@H]2CN(C)CC[C@@H]2NC(=O)c2ccccc2)cc1` (relative stereo), the melting point fell in the range of 164 to 165 °C.

In turn, `O=C(Nc1nc2ccc(C(F)(F)F)cc2s1)c1c(F)cccc1Cl` returned a melting point of 265 to 270 °C.

In turn, `COCOc1ccc(-c2cc(S(C)=O)nn2-c2ccc(OC)cc2)cc1` (stereo unspecified) showed a melting point of 137 °C.

`Cc1ccc(C(=O)n2nc(Nc3cccc(OCC#N)c3)nc2N)cc1` showed a melting point of 236 to 241 °C.

Molecule `CCCCNC(=O)[C@@H](C[C@H](O)[C@@H](N)CC1CCCC1)C(C)C` had a melting point of 93 to 94 °C.

In turn, `Cc1oc(-c2ccccc2)nc1COc1ccc(CON=C(CCCCCC(=O)O)c2ccccc2)cc1` showed a melting point of 84 to 85 °C.

In the case of `COc1ccc(N2CCN(CCC3OCCc4cc(C#N)ccc43)CC2)cc1` (stereo unspecified), the melting point lay in the range of 86 to 88 °C.

On to `Cc1nc(-c2ccc(-c3cscn3)c(C)c2)c(-c2ccc(S(C)(=O)=O)c(F)c2)o1`, for which the melting point is 177 to 178 °C.

Take `CN(c1nccc(-n2nnc3ccccc32)n1)[C@H]1CC[C@H](N(C)S(C)(=O)=O)CC1`: the melting point was 204 °C.

`CCOC(=O)C1=C(N)N=C(OCC)C(C(=O)O)C1c1ccccc1[N+](=O)[O-]` (stereo unspecified): the melting point fell in the range of 133 to 134 °C.

The molecule `Nc1ccc(-c2ccc(-c3ccc(N)cc3)o2)cc1` had a melting point of 213 to 216 °C.

On to `O=C(O)CS(=O)CC(=O)O`, for which the melting point lay in the range of 118 to 119 °C.

As for `Cc1cnc2c(C#N)c(C)nn2c1-c1ccccc1`, the melting point lay within 208 to 210 °C.

The molecule `CCCCN(Cc1ccc(-c2ccccc2-c2nnnn2C(c2ccccc2)(c2ccccc2)c2ccccc2)cc1)c1nc(C)ncc1C(=O)OCC` showed a melting point of 130 to 132 °C.

For `CCCCCCCCc1ccc(NC2=NCCS2)cc1`, the melting point fell in the range of 82 to 84 °C.

Consider `CCC(CC)n1nc2c(C(F)(F)F)cccc2c1-c1ccc(OC)cc1OC`, for which the melting point is 138 to 139 °C.

Molecule `OC(CCN1CC=C(c2ccc(Cl)cc2)CC1)c1ccc(F)cc1` (stereo unspecified) registered a melting point of 130 to 132 °C.

`CC(C)COC1OC(CO)C(O)C(O)C1(O)N(C(=O)N(CCCl)N=O)C1CCCCC1` (stereo unspecified) displayed a melting point of 87 to 89 °C.

For the molecule `Cc1nnc(S(=O)(=O)C(Br)(Br)Br)s1`, the melting point fell in the range of 169 to 173 °C.

In turn, `Cc1cc(NC(=O)C(=O)N(C)Cc2ccccc2)cc(C)c1S(=O)(=O)C[N+](=O)[O-]` gave a melting point of 99 to 101 °C.

`C=CC(=O)OCc1cn(CCCCCCCCCCCCCCCC)nn1` returned a melting point of 72 to 73 °C.

On to `O=C(Nc1ccc(N2C[C@H]3CN(C(=O)OCc4ccccc4)C[C@H]3C2)c(F)c1)OCc1ccccc1`, for which the melting point was in the range of 121 to 122 °C.

Turning to `COc1ccc(C2CCOCC2)cc1N`, the melting point was 102 to 103 °C.

`COc1cc(C)nc2nc(S(=O)(=O)Nc3c(Cl)cccc3Cl)nn12` gave a melting point of 214 to 215 °C.

In turn, `O=C(O)C(CCCCc1ccccc1)Oc1cccc2ccccc12` (stereo unspecified) showed a melting point of 91 to 94 °C.

Regarding `Cc1ccc(-c2nn3cccnc3c2CC(=O)N(C)C)cc1`, the melting point fell in the range of 164 to 165 °C.

With `CCCc1c(OCCCOc2ccc(C(=O)C(=O)O)cc2)ccc(C(=O)OC)c1O`, the melting point was in the range of 86 to 87 °C.

`O=c1[nH]c2c3ccccc3ccc2n(Cc2ccccc2)c1=O` yielded a melting point of 308 °C.

Take `O=C(Nc1cnc2ccccc2c1)c1cc2cc(F)ccc2n1Cc1cccc(F)c1`: the melting point lay in the range of 244 to 246 °C.

`S=C(N1CCCCC1)C1(c2ccccn2)CCCS1` (stereo unspecified) had a melting point of 90 °C.

Regarding `CCN(CC)CCNc1ccc(N2CCOC2=O)cc1[N+](=O)[O-]`, the melting point is 124 °C.

As to `O=C(CBr)Nc1ccc([N+](=O)[O-])cc1`, the melting point was in the range of 175 to 178 °C.

The molecule `CC(=O)Nc1ccc(Sc2cccn3nc(Nc4ccc(C5CCN(C(=O)OC(C)(C)C)CC5)cc4)nc23)cc1` displayed a melting point of 226 to 228 °C.

In turn, `CCCCCCCCOc1ccc(-c2cnc(-c3ccc(OCc4ccccc4)c(F)c3F)nc2)cn1` had a melting point of 120 °C.

Regarding `CC(C)(C)c1ccc(-c2nc3c4[nH]cnc4nc(CP(=O)(O)O)n3n2)cc1`, the melting point worked out at 270 °C.

In turn, `O=Cc1c[nH]c2cc(C(=O)NCC3CCCC3)ccc12` yielded a melting point of 224 to 225 °C.

In the case of `CCCCc1nc(Cl)c(CO)n1Cc1ccc2oc(-c3ccccc3C#N)c(OC)c2c1`, the melting point fell in the range of 164 to 168 °C.

As for `COc1ccc(CNc2nc3ccccc3c3[nH]c(C4CCCC4)nc23)cc1`, the melting point was 245 to 247 °C.

`CCC1(CCCCN2CCN(c3cccc(Cl)c3)CC2)C(=O)Nc2ccc(C)cc21` (stereo unspecified) registered a melting point of 142 to 144 °C.

Take `NS(=O)(=O)c1ccc(-c2oc3cc(F)ccc3c(=O)c2-c2ccc(Cl)c(Cl)c2)cc1`: the melting point lay in the range of 190 to 191 °C.

With `CCC(C)(C#N)NC(=O)Cc1c(C)cc(C)cc1C` (stereo unspecified), the melting point fell in the range of 155 to 157 °C.

`CCC1(O)CCC2C3CCC4CC(=O)CC(C)C4(C)C3CCC21C` (stereo unspecified) returned a melting point of 152 °C.

Consider `CN1C(=O)N(c2cc(Cl)cc(Cl)c2)C(=O)[C@]12CN(Cc1ccccc1)C[C@H]2c1ccc(Br)cc1` (relative stereo), for which the melting point came out at 204 °C.

Take `Cc1c(NC(=O)c2ccc(OC[C@@H]3CCCO3)cc2)ccc2cc(CN3CCC(C)(O)CC3)n(C)c12`: the melting point fell in the range of 140 to 141 °C.

In the case of `NCc1ccc(C(=O)O)cc1[N+](=O)[O-]`, the melting point lay within 235 to 237 °C.

The molecule `COC(=O)c1cccn2c(C(=O)c3ccc(N4C[C@H](CNC(C)=O)OC4=O)cc3)cnc12` displayed a melting point of 202 to 204 °C.

As for `CC(C)=C1c2ccccc2-c2ccccc21`, the melting point fell in the range of 112 to 113 °C.

Consider `O[C@H]1c2ccccc2C=C[C@@H]1OC(C(F)(F)F)C(F)(F)F`, for which the melting point fell in the range of 88.5 to 90 °C.

Molecule `COc1ccc(Cn2c(=O)c3ccccc3n(CCCCCCl)c2=O)cc1` had a melting point of 110 to 111 °C.

`CC1=NC2CN=C(c3ccccc3)c3cc(Cl)ccc3C2C(=O)N1` (stereo unspecified) yielded a melting point of 155 to 160 °C.

As to `Cc1ccc(S(=O)(=O)NC(=O)C2C(=O)CC(CC(C)C)CC2=O)cc1` (stereo unspecified), the melting point lay within 128 to 130 °C.

Take `OCc1conc1-c1ccc(F)c(Cl)c1`: the melting point lay within 87 to 88 °C.

Take `CCCN(CCC)S(=O)(=O)c1cccc(C(=O)Nc2ccc(Br)cc2)c1`: the melting point is 160 to 162 °C.

These data come from a melting point compilation (Tetko et al.; mined from patent text by program, amines drawn as free bases though some values may be those of a salt).
